Results from publication PMC7897990, “TriTOX: A novel Trichomonas vaginalis assay platform for high-throughput screening of compound libraries” (International Journal for Parasitology: Drugs and Drug …, 2021).
Where two headings read alike, the source gives them in different places.

Tests used:
[1] = test system: nontumorigenic neonatal foreskin fibroblast (NFF) cell line
[2] = test system: Trichomonas vaginalis G3 trophozoites; conditions: for T.vaginalis_Absorbance_Rep1: replicate 1, raw absorbance; for T.vaginalis_Absorbance_Rep2: replicate 2, raw absorbance
[3] = replicate 1, parasite screen at 1 µg/mL
[4] = replicate 2, parasite screen at 1 µg/mL
[5] = HTS, parasite screen at 1 µg/mL, replicate 1
[6] = HTS, parasite screen at 1 µg/mL
[7] = HTS, parasite screen at 1 µg/mL, replicate 2
[8] = NFF_NS1 screen 5 µg/mL, single concentration
[9] = HTS single concentration, parasite screen 1 µg/mL, replicate 1
[10] = HTS single concentration, parasite screen 1 µg/mL, replicate 2
[11] = NFF_NS1 screen at 5 µg/mL, NFF cells
[12] = parasite screen at 1 µg/mL, replicate 1
[13] = parasite screen at 1 µg/mL, replicate 2
[14] = NFF fibroblasts, single concentration 5 µg/mL
[15] = HTS replicate 1, parasite screen 1 µg/mL
[16] = HTS replicate 2, parasite screen 1 µg/mL

Cc1cccc(O)c1C(=O)O [BIA-M1655]
NFF_Activity ([1]; NFF cells, screen at 5 µg/mL): I (otherwise these were reported as inactive (I)) | T.vaginalis_%inb_Rep1 [2, 3]: 11.00% | T.vaginalis_%inb_Rep2 [2, 4]: 14.69%

CCCCCC[C@H]1C(=O)O[C@H](C)[C@@H](O)/C=C/C=C/C=C/C=C/C=C(\C)[C@@H](O)C[C@H](O)C[C@H](O)C[C@H](O)C[C@H](O)C[C@H](O)C[C@@H]1O [Filipin II]
NFF_Activity ([1]; NFF_NS1 screen at 5 µg/mL): I (otherwise these were reported as inactive (I)) | T.vaginalis_%inb_Rep1 [2, 5]: 13.79% | T.vaginalis_Absorbance_Rep1 [2, 6]: 0.965 | T.vaginalis_%inb_Rep2 [2, 7]: 25.09% | T.vaginalis_Absorbance_Rep2 [2, 6]: 0.967

CN1CCC2(c3cccc4c3NC3N(C)CCC43C34CCN(C)C3Nc3ccccc34)c3ccccc3NC12 (centres unmarked) [BIA-H1948]
NFF_Activity ([1]; NFF cells, screen at 5 µg/mL): A (active (A) compounds having >25% inhibitory activity) | T.vaginalis_%inb_Rep1 [2, 3]: 8.81% | T.vaginalis_%inb_Rep2 [2, 4]: 5.36%

CCCC[C@@H](C)[C@@H](OC(=O)C[C@@H](CC(=O)O)C(=O)O)[C@H](C[C@@H](C)CCCCCC[C@@H](O)C[C@H](O)[C@H](C)N)OC(=O)C[C@@H](CC(=O)O)C(=O)O [Fumonisin B2]
NFF_Activity ([1]; NFF_NS1 screen at 5 µg/mL): I (otherwise these were reported as inactive (I)) | T.vaginalis_%inb_Rep1 [2, 5]: 14.71% | T.vaginalis_Absorbance_Rep1 [2, 6]: 0.992 | T.vaginalis_%inb_Rep2 [2, 7]: 10.52% | T.vaginalis_Absorbance_Rep2 [2, 6]: 0.799

CC(=O)NCCc1c[nH]c2ccccc12 [BIA-A1732]
NFF_Activity [1, 8]: I (otherwise these were reported as inactive (I)) | T.vaginalis_%inb_Rep1 [2, 9]: 14.43% | T.vaginalis_%inb_Rep2 [2, 10]: 33.62%

CO[C@H]1C[C@H](O[C@H]2[C@H](C)O[C@@H](O[C@@H]3/C(C)=C/C[C@@H]4C[C@@H](C[C@]5(C=C[C@H](C)[C@@H](C(C)C)O5)O4)OC(=O)[C@@H]4C=C(C)[C@@H](O)[C@H]5OC/C(=C\C=C\[C@@H]3C)[C@]54O)C[C@@H]2OC)O[C@@H](C)[C@@H]1O [BIA-A1011]
NFF_Activity [1, 8]: I (otherwise these were reported as inactive (I)) | T.vaginalis_%inb_Rep1 [2, 9]: 14.65% | T.vaginalis_%inb_Rep2 [2, 10]: 18.51%

COC1=C(OC)C(=O)C(C)=C(C)C1=O [BIA-A1654]
NFF_Activity [1, 8]: A (active (A) compounds having >25% inhibitory activity) | T.vaginalis_%inb_Rep1 [2, 9]: 13.09% | T.vaginalis_%inb_Rep2 [2, 10]: 16.34%

CC[C@@H](C)/C=C(C)/C=C/C(=O)c1c(O)c(-c2ccc(O)cc2)cn(O)c1=O [BIA-T1566]
NFF_Activity [1, 11]: I (otherwise these were reported as inactive (I)) | T.vaginalis_%inb_Rep1 [2, 12]: 8.55% | T.vaginalis_%inb_Rep2 [2, 13]: 14.93%

Pladienolide B
NFF_Activity [1, 14]: I (otherwise these were reported as inactive (I)) | T.vaginalis_%inb_Rep1 [2, 15]: 11.92% | T.vaginalis_%inb_Rep2 [2, 16]: 13.15%

CC1(C)C=Cc2c(ccc3ccc(=O)oc23)O1 [BIA-S1776]
NFF_Activity [1, 11]: I (otherwise these were reported as inactive (I)) | T.vaginalis_%inb_Rep1 [2, 12]: 12.88% | T.vaginalis_%inb_Rep2 [2, 13]: 13.28%

C=CCNC1=C2CC(C)CC(OC)C(O)C(C)C=C(C)C(OC(N)=O)C(OC)C=CC=C(C)C(=O)NC(=CC1=O)C2=O (centres unmarked) [BIA-A1923]
NFF_Activity [1, 8]: I (otherwise these were reported as inactive (I)) | T.vaginalis_%inb_Rep1 [2, 9]: 11.27% | T.vaginalis_%inb_Rep2 [2, 10]: 34.13%

C/C=C/c1cc2c(c(=O)o1)[C@H](O)[C@@H](O)[C@H](C)O2 [BIA-R1896]
NFF_Activity [1, 11]: I (otherwise these were reported as inactive (I)) | T.vaginalis_%inb_Rep1 [2, 12]: 13.39% | T.vaginalis_%inb_Rep2 [2, 13]: 5.58%

COc1ccc2c(c1OC)C(=O)O[C@@H]2[C@H]1c2c(cc3c(c2OC)OCO3)CCN1C [Narcotine]
NFF_Activity [1, 14]: I (otherwise these were reported as inactive (I)) | T.vaginalis_%inb_Rep1 [2, 15]: 11.80% | T.vaginalis_%inb_Rep2 [2, 16]: 11.76%

CCCCCCCCCCCC(=O)N[C@H]1CCOC1=O [Dodecanoyl-L-homoserine lactone]
NFF_Activity ([1]; NFF_NS1 screen at 5 µg/mL): I (otherwise these were reported as inactive (I)) | T.vaginalis_%inb_Rep1 [2, 5]: 9.75% | T.vaginalis_Absorbance_Rep1 [2, 6]: 0.89 | T.vaginalis_%inb_Rep2 [2, 7]: 12.87% | T.vaginalis_Absorbance_Rep2 [2, 6]: 0.798

Echinocandin B
NFF_Activity ([1]; NFF_NS1 screen at 5 µg/mL): I (otherwise these were reported as inactive (I)) | T.vaginalis_%inb_Rep1 [2, 5]: 15.24% | T.vaginalis_Absorbance_Rep1 [2, 6]: 0.992 | T.vaginalis_%inb_Rep2 [2, 7]: 6.58% | T.vaginalis_Absorbance_Rep2 [2, 6]: 0.711

C/C=C/C1=CC(=O)[C@@H](O)[C@@H]1O [BIA-T1408]
NFF_Activity [1, 11]: I (otherwise these were reported as inactive (I)) | T.vaginalis_%inb_Rep1 [2, 12]: 6.82% | T.vaginalis_%inb_Rep2 [2, 13]: 13.71%

C[C@@H]1OC(=O)[C@H]2C[C@H]3CCCC[C@@H]3[C@@H](/C=C/[C@H]3CCC[C@H](C)N3C)[C@@H]12 [BIA-H1744]
NFF_Activity ([1]; NFF cells, screen at 5 µg/mL): I (otherwise these were reported as inactive (I)) | T.vaginalis_%inb_Rep1 [2, 3]: 12.98% | T.vaginalis_%inb_Rep2 [2, 4]: 14.75%
